Consider 6 compounds from patent US20260234165A1, “MACROCYCLIC COMPOUNDS, PREPARATION METHOD THEREFOR, AND USE THEREOF” (GENFLEET THERAPEUTICS (SHANGHAI) INC., priority 2004, published 2026).

Each structure is given as a SMILES string. pIC50: −log10 of the molar value. Read-outs that look alike come from different tables or passages of the source.

For one test, the system named is NCI-H441 cells. Description: 3D cell proliferation assay (CellTiter Glo-3D), NCI-H441. The class given is cell-based, human. The following applies: medium with 2% FBS, read-out: H441 AP IC50. The text has this:
MIA PaCa-2 cells were purchased from ATCC, Cat. No. CRL-1420; AsPC-1 cells were purchased from ATCC, Cat. No. CRL-1682; NCI-H441 cells were purchased from ATCC, Cat. No. HTB-174: NCI-H1975 cells were purchased from ATCC. Cat. No. CRL-5908; DMEM medium was purchased from Gibco, Cat. No. 11995-065: RPMI-1040 medium was purchased from Gibco. Cat. No. H 18754093; FBS was purchased from Gibco, Cat. No. 10099-141C. penicillin, streptomycin double-antibiotic solution (PS) was purchased from Gibco, Cat. No. 15140-122; Horse serum was purchased from Gibco. Cat. No. 16050130: trypsin (containing EDTA) was purchased from Gibco, Cat. No. 25200-072; DMSO was purchased from VWRAMRESCO, Cat. No. 0231-500ML; 384-well cell culture plates were purchased from Corning, Cat. No. 3830; white-bottomed, opaque 384-well assay plates were purchased from Corning, Cat. No. 3570. CellTiter Glo-3D) kit was purchased from Promega. Cat. No. G9683; cell counter was purchased from CHEMOMETEC, model: NC-200: microplate reader was purchased from PerkinElmer, model: EnVision.
MIA PaCa-2, a human pancreatic cancer cell strain endogenously containing a KRAS^G12C mutation, was cultured in a complete medium containing DMEM+10% FBS+2.5% Horse serum+1% PS. AsPC-1, a human pancreatic cancer cell strain endogenously containing a […] mutation, was cultured in a complete medium containing RPMI-1640+10% FBS+1% PS. NCI-H441 cells, a human lung cancer cell strain endogenously containing a […] mutation, were cultured in a complete medium containing RPMI-1640+10% FBS+1% PS. NCI-H1975, a KRAS wild-type human lung cancer cell strain whose cell proliferation depends on KRAS activity, was cultured in a complete medium containing RPMI-1640+10% FBS+1% PS.
The cells were digested with trypsin (containing EDTA), collected in their respective low-serum complete media containing 2% FBS (for MIA Paca-2 cell culture: DMEM+2% FBS+0.5% Horse serum+1% PS), and counted. After the cell density was adjusted as required, 200 MIA PaCa-2 cells, 800 AsPC-1 cells, 800 NCI-H441 cells, or 400 NCI-H1975 cells per well were seeded into a 384-well cell culture plate, with the volume of the medium in each well being 45 μL. The cell culture plate was incubated in an incubator at 37° C. with 5% CO2, overnight. A series of 3.16-fold gradient dilutions of a 1000× compound stock solution were prepared with DMSO, and then diluted 100-fold with the complete medium containing 2% FBS described above to give 10- compound stock solutions. On the day after cell seeding, 5 μL of the 10- compound stock solution was added to each cell culture well. As a result, the final concentration of the compound in the cell culture well became 1×, and the DMSO content in the well was 0.1%. In addition to the compound-treated wells described above, cell-containing DMSO control wells (with 5 μL of the complete medium containing 1% DMSO added to each well) and cell-free medium control wells (containing 50 μL of the complete medium with 2% FBS) were also set. The culture plate was incubated in an incubator at 37° C. with 5% CO2 for another 5 days, and then 30 μL of CellTiter-Glo working solution was added to each well. The mixture was well mixed, incubated for 30 min, left to stand at room temperature for 30 min, and then transferred to a white-bottomed, opaque 384-well assay plate at 40 μL/well. The chemiluminescence values (RLU) were measured using a microplate reader, and the cell proliferation inhibition rate for each well was calculated: IR (%)=(RLUDMSO—RLUcompound)/(RLUDMSO−RLUblank)×100%, where RLUDMSO is the average RLU signal value from the DMSO control well samples, RLUblank is the average RLU signal value from the medium control well samples, and RLUcompound is the RLU signal value from the compound-treated well samples. […]

For test [1], the system named is p-ERK in NCI-H441 cells (KRAS G12V mutation). As to the kind of experiment: Cell p-ERK assay (HTRF) in NCI-H441 cells. The note with it: NCI-H441 cells, 3 h compound incubation, HTRF p-ERK T202/Y204, read-out: H441 p-ERK IC50. The test is classed as cell-based, human. The procedure: AsPC-1 cells were purchased from ATCC, Cat. No. CRL-1682: NCI-H441 cells were purchased from ATCC, Cat. No. HTB-174: RPMI-1640 medium was purchased from Gibco, Cat. No. I1875-093: FBS was purchased from Gibco, Cat. No. 10099-141C: penicillin/streptomycin double-antibiotic solution (PS) was purchased from Gibco, Cat. No. 15140-122: trypsin (containing EDTA) was purchased from Gibco, Cat. No. 25200-072; DMSO was purchased from VWRAMRESCO, Cat. No. 0231-500ML; 96-well cell culture plates were purchased from Corning, Cat. No. 3599: white-bottomed, opaque 96-well plates were purchased from Cisbio, Cat. No. 66PL96025; Advance ERK phospho-T202/Y204 kit was purchased from Cisbio, Cat. No. 64AERPEH; cell counter was purchased from CHEMOMETEC, model: NC-200; microplate reader was purchased from PerkinElmer, model: EnVision.
AsPC-1, a human pancreatic cancer cell strain endogenously containing a KRAS^G12D mutation, was cultured in a complete medium containing RPMI-1640+10% FBS+1% PS. NCI-H441, a human non-small cell lung cancer cell strain endogenously containing a KRAS^G12V mutation, was cultured in a complete medium containing RPMI-1640+10% FBS+1% PS.
The cells were digested with trypsin (containing EDTA), collected in their corresponding complete media, and counted. The density of the cell suspensions was adjusted with their corresponding complete media, and 10000 AsPC-1 cells or 20000 NCI-H441 cells per well were seeded into a 96-well cell culture plate, with the volume of the medium in each well being 80 μL.
The cell culture plate was incubated in an incubator at 37° C. with 5% CO2 overnight. A series of 3.16-fold gradient dilutions of a 1000- compound stock solution were prepared with DMSO, and then diluted 200-fold with the complete medium described above to give 5′ compound stock solutions. On the day after cell seeding, 20 μL of the 5× compound stock solution was added to each cell culture well. As a result, the final concentration of the compound in the cell culture well became 1×, and the DMSO content in the well was 0.1%. In addition to the compound-treated wells described above, cell-containing DMSO control wells were also set. A complete medium containing 0.5% DMSO was added at 20 μL/well. After the mixture was well mixed, the culture plate was incubated in the incubator at 37° C. with 5% CO2 for another 3 h. The medium was then removed from the culture wells, and 50 μL of cell lysis buffer (from Advance ERK phospho-T202,Y204 kit) was added to each well. The mixture was well mixed and incubated for 30 min. Then, 16 μL of the mixture was transferred to a white-bottomed, opaque 96-well assay plate, and separately, 16 μL of cell lysis buffer was added to additional wells (serving as blank wells) in the assay plate. After the transfer was completed, 4 μL of p-ERK HTRF antibody mixture (from Advance ERK phospho-T202/Y204 kit) was added to each well of the assay plate, followed by a 4-hour incubation. The HTRF signal values (RLU) were then measured using a microplate reader, and the inhibition rate of the compound against p-ERK levels was calculated as follows: IR (%)=(RLUDMSO−RLUcompound)/(RLUDMSO−RLUblank)×100%, where RLUDMSO is the average HTRF signal value from the DMSO control well samples, RLUblank is the average HTRF signal value from the blank well samples, and RLUcompound is the HTRF signal value from the compound-treated well samples. Using an XLfit software, the IR (%) values were plotted against the logarithm of the compound concentrations, and the dose-response curves were fitted using the four-parameter method to calculate the IC50 values.

With `CCn1c(-c2cc(C#CCN3CCCOCC3)cnc2[C@H](C)OC)c2c3cc(ccc31)-c1csc(n1)C[C@H](Nc1nnc3cc(I)ccn13)C(=O)N1CCC[C@H](N1)C(=O)OCC(C)(C)C2` (atropisomer, axis not shown; (Ra)) [Compound Z970, (6^3S,4S,Z)-1^2-(Ra)-(5-(3-(1,4-oxazepan-4-yl)prop-1-yn-1-yl)-2-((S)-1-methoxyethyl)pyridin-3-yl)-1^1-ethyl-4-((7-iodo-[1,2,4]triazolo[4,3-a]pyridin-3-yl)amino)-10,10-dimethyl-6^1,6^2,6^3,6^4,6^5,6^6-hexahydro-1^1H-8-oxa-2(4,2)-thiazola-1(5,3)-indola-6(1,3)-pyridazinacycloundecaphane-5,7-dione], the pIC50 with NCI-H441 cells (Homo sapiens, NCI-H441, 3D cell proliferation (CellTiter Glo-3D)) is 8.14. For `CNCCn1c(-c2cc(C#CCN3CCS(=O)(=O)CC3)cnc2[C@H](C)OC)c2c3cc(ccc31)-c1csc(n1)C[C@H](NC(=O)[C@H]1[C@H](C)[C@@H]1C)C(=O)N1CCC[C@H](N1)C(=O)OCC(C)(C)C2` (atropisomer, axis not shown; (Ra)) [Compound Z954, (1r,2R,3S)—N-((6^3S,4S,Z)-1^2-(5-(3-(1,1-dioxidodimorpholino)prop-1-yn-1-yl)-(Ra)-2-((S)-1-methoxyethyl)pyridin-3-yl)-10,10-dimethyl-1^1-(2-(methylamino)ethyl)-5,7-dioxo-6^1,6^2,6^3,6^4,6^5,6^6-hexahydro-1^1H-8-oxa-2-(4,2)-thiazola-1(5,3)-indola-6(1,3)-pyridazinacycloundecaphane-4-yl)-2,3-dimethylcyclopropane-1-carboxamide], the pIC50 with NCI-H441 cells (3D cell proliferation (CellTiter Glo-3D)) is 8.63. Turning to `CCn1c(-c2cc(C#CCN3CC4CCC(C3)N4C(C)=O)cnc2[C@H](C)OC)c2c3cc(ccc31)-c1csc(n1)C[C@H](Nc1nnc3cc(C)ccn13)C(=O)N1CCC[C@H](N1)C(=O)OCC(C)(C)C2` (atropisomer, axis not shown; (Ra)) [Compound Z1014, (6^3S,4S,Z)-1^2-(5-(3-(8-acetyl-3,8-diazabicyclo[3.2.1]octan-3-yl)prop-1-yn-1-yl)-(Ra)-2-((S)-1-methoxyethyl)pyridin-3-yl)-1^1-ethyl-10,10-dimethyl-4-((7-methyl-[1,2,4]triazolo[4,3-a]pyridin-3-yl)amino)-6^1,6^2,6^3,6^4,6^5,6^6-hexahydro-1^1H-8-oxa-2(4,2)-thiazola-1(5,3)-indola-6(1,3)-pyridazinacycloundecaphane-5,7-dione], the pIC50 in test [1] was 8.47.

For `CCn1c(-c2cc(C#CCN3CCCOCC3)cnc2[C@H](C)OC)c2c3cc(ccc31)-c1csc(n1)C[C@H](NC(=O)CC(C)(C)C)C(=O)N1CCC[C@H](N1)C(=O)OCC(C)(C)C2` (atropisomer, axis not shown; (Ra)) [Compound Z798, N-((6^3S,4S,Z)—(Ra)-1^2-(5-(3-(1,4-oxazepan-4-yl)propyn-1-yl)-2-((S)-1-methoxyethyl)pyridin-3-yl)-1^1ethyl-10,10-dimethyl-5,7-dioxo-6^1,6^2,6^3,6^4,6^5,6^6-hexahydro-1^1H-8-oxa-2(4,2)-thiazola-1(5,3)-indola-6(1,3)-pyridazinacycloundecaphane-4-yl)-3,3-dimethylbutanamide], the pIC50 in test [1] (Homo sapiens, NCI-H441, 3 h) was 8.41. On the same count and under the same terms, the same measure for `CCn1c(-c2cc(N3CCN(c4ccc(C)cc4)CC3)cnc2[C@H](C)OC)c2c3cc(ccc31)-c1csc(n1)C[C@H](NC(=O)[C@H]1[C@H](C)[C@@H]1C)C(=O)N1CCC[C@H](N1)C(=O)OCC1(CC1)C2` [Compound Z461, (1r,2R,3S)—N-((3′S,4′S,Z)-1′-ethyl-2′-(2-((S)-1-methoxyethyl)-5-(4-(p-tolyl)piperazin-1-yl)pyridin-3-yl)-5′,7′-dioxospiro[cyclopropane-1,10′-8-oxa-2(4,2)-thiazola-1(5,3)-indola-6(1,3)-pyridazinacycloundecaphan]-4′-yl)-2,3-dimethylcyclopropane-1-carboxamide]: 7.03. The same measure, in the same setting: the result for `CCn1c(-c2cc(C#CCN3CCN(C)S(=O)(=O)CC3)cnc2[C@H](C)OC)c2c3cc(ccc31)-c1csc(n1)C[C@H](Nc1nnc3cc(C)ccn13)C(=O)N1CCC[C@H](N1)C(=O)OCC(C)(C)C2` (atropisomer, axis not shown; (Ra)) [Compound Z1027, (6^3S,4S,Z)-1^1-ethyl-1^2-(Ra)-(2-((S)-1-methoxyethyl)-5-(3-(2-methyl-1,1-dioxido-1,2,5-thiadiazepan-5-yl)prop-1-yn-1-yl)pyridin-3-yl)-10,10-dimethyl-4-((7-methyl-[1,2,4]triazolo[4,3-a]pyridin-3-yl)amino)-6^1,6^2,6^3,6^4,6^5,6^6-hexahydro-1^1H-8-oxa-2(4,2)-thiazola-1(5,3)-indola-6(1,3)-pyridazinacycloundecaphane-5,7-dione] reads 8.81.
